≈ marks a conversion by molar mass, not a printed value. Where only a bound is given, the exact number is not on record here.

The record followed here is patent US6967205B1, “Compounds with antibacterial and antiparasitic properties” (New Pharma Research Sweden AB, priority 1999, dated 2005).

Test [1] deals with Eimeria acervulina, E. maxima, E. necatrix, E. tenella and E. brunetti. As to the kind of experiment: Prophylactic anticoccidial activity in chickens of Habbared X breed (5 Eimeria strains). The test is classed as in vivo. The conditions noted are these: drug in feed (JA 39, JA 42 100 ppm; Coxistac 60 ppm). The method, then:
The anticoccidial activity of the present compounds as prophylactic agents was evaluated in vivo on […] one day old (1 day after hatch) chickens of Habbared X breed. The chickens were divided into four groups of 20 birds each, and each group was located in a separate pen (1 m×1 m). The chickens were then fed with unmedicated food up to day 7 after hatch. Fresh water was supplied ad libitum .
On day 8 after hatch, the four groups were fed as follows (1 ppm=1 mg drug/kg feed): • Group #1: feed containing JA 39 (100 ppm); • Group #2: feed containing JA 42 (100 ppm); • Group #3: feed containing Coxistac (60 ppm), a known anticoccidial agent (see U.S. Pat. No. 3,857,948);
Group #4: feed containing no drug (control group).
The chickens were fed as above on day 8 and 9 after hatch. On day 10 after hatch, each chicken was infected orally by 6 000-7 000 oocysts containing a mixture of 5 mature sporulated strains, namely Eimeria acervulina, E. maxima, E. necatrix, E. tenella and E. brunetti. The groups #1-3 received drug as above from day 10 to 21 after hatch.
From day 14 to 21 after hatch, fresh fecal droplets were collected and examined daily. The average number of oocysts/g faeces was then calculated in accordance with the so-called Mc-Master technique (Soulsby, E. J., Helminths, Arthropods & Protozoa of domesticated animals, p. 789, 6th Ed., Williams & Wilkins Co. Baltimore (USA), Tindall & Cassell Ltd., London, 1968). The final weight of and mean total amount of feed consumed by each bird were also examined, and the results are summarized in Table 8 hereinbelow.

The next test deals with Bacillus cereus. The test is described as follows: M.I.C. by broth dilution method (NCCLS 1988), gram-positive bacteria. Conditions: in vitro broth dilution. The test is classed as cell-based. The method, then:
(§1) The antibacterial activity of the present compounds was investigated by in vitro evaluation of their M.I.C. (Minimum Inhibitory Concentration) values. The evaluation was conducted in complete accordance with the “Broth dilution method”, as outlined by the U.S. National Committee for Clinical Laboratory Standards “NCCLS 1988”.
(§2) Solutions of the present compounds were prepared by dissolving 0.01 g of a test compound in either 10% KOH (aq) or a 10% KOH/DMF mixture, after which sterile, distilled H2O was added up to a total volume of 10 ml, thereby yielding a test compound concentration of 1 000 μg/ml.
(§3) In this evaluation, the antibacterial activity of the present compounds and enrofloxacin as reference compound was tested against seven strains of gram-positive bacteria, namely Bacillus subtilus (ATCC 6633), Bacillus cereus, Streptococcus faecium, Micrococcus Luteus (ATCC 9341), Staph. aureus (ATCC 29737), Staph. epidermidis (ATCC 12228) and Staphylococcus (ATCC 6538).
(Broth dilution looks for growth in wells or tubes with falling amounts of substance.)

The subject of test [2] is Bacillus subtilus (ATCC 6633). Described as above. The format is cell-based. The conditions noted are these: ATCC6633, in vitro broth dilution. The method, then:
as §1, §2, §3

Test [3] relates to Micrococcus Luteus (ATCC 9341). Described as above. The format is cell-based. Conditions: ATCC9341, in vitro broth dilution, read-out: M.I.C. values Microc. Luteus. The method, then: as §1, §2, §3
In test [4] the test system is Staph. aureus (ATCC 29737). The description is as above. The format is cell-based. The conditions noted are these: Staphylococcus aureus, ATCC29737, in vitro broth dilution. The method, then: as §1, §2, §3
The subject of test [5] is Staph. epidermidis (ATCC 12228). The test is described as above. The test is classed as cell-based. The conditions noted are these: Staphylococcus epidermidis, ATCC12228, in vitro broth dilution. The method, then:
as §1, §2, §3

The subject of test [6] is Staphylococcus (ATCC 6538). Described as above. The format is cell-based. Conditions: ATCC6538, in vitro broth dilution, read-out: M.I.C. values Staph. (ATCC 6538). The method, then:
as §1, §2, §3

A further test deals with Streptococcus faecium. Described as above. Conditions: Enterococcus faecium, in vitro broth dilution, read-out: M.I.C. values Streptoc. faecium. The test is classed as cell-based. The method, then:
as §1, §2, §3

Take `CC[C@@H](C(=O)[C@@H](C)[C@@H](O)[C@H](C)[C@@H]1O[C@@H]([C@@H](CC)C(=O)O)CC[C@@H]1C)[C@H]1O[C@]2(C=C[C@@H](O)[C@]3(CC[C@@](C)([C@H]4CC[C@](O)(CC)[C@H](C)O4)O3)O2)[C@H](C)C[C@@H]1C` [Coxistac, reference compound]: the “Average number of Eimeria spp. oocysts/g faeces, day after hatch 14” value in test [1] (day 14 after hatch, infected day 10) was found to be 0.0 oocysts/g faeces. Further, the “Average number of Eimeria spp. oocysts/g faeces, day after hatch 15” value in test [1] (day 15 after hatch, infected day 10) is reported as 3000 oocysts/g faeces. The “Average number of Eimeria spp. oocysts/g faeces, day after hatch 16” value in test [1] (day 16 after hatch, infected day 10) was determined as 4000 oocysts/g faeces. Further, the “Average number of Eimeria spp. oocysts/g faeces, day after hatch 17” value in test [1] (day 17 after hatch, infected day 10) was determined as 7000 oocysts/g faeces. Also, in test [1] (day 18 after hatch, infected day 10), the “Average number of Eimeria spp. oocysts/g faeces, day after hatch 18” value is 2000 oocysts/g faeces. In test [1] (day 19 after hatch, infected day 10), the “Average number of Eimeria spp. oocysts/g faeces, day after hatch 19” value was found to be 2000 oocysts/g faeces. The “Average number of Eimeria spp. oocysts/g faeces, day after hatch 21” value in test [1] (day 21 after hatch, infected day 10) amounted to 0.0 oocysts/g faeces. In addition, in test [1] (final weight, infected chickens), the “Mean body weight” value turned out to be 62.0 g. For the same compound, in test [1] (mean total feed per bird, infected chickens), the “Mean amount of feed consumed” value was found to be 120 g. Further, in test [1] (total of days 14-21 after hatch), the “Average number of Eimeria spp. oocysts/g faeces, Total” value is recorded as 18000 oocysts/g faeces.

Take `O=C(O)c1cn(C2CC2)c2cc(N3CCN(c4cccc(Cl)c4S)CC3)c(F)cc2c1=O` [JA 41, 7-[4-(3-chloro-2-sulfanylphenyl)-1-piperazinyl]-1-cyclopropyl-6-fluoro-4-oxo-1,4-dihydro-3-quinolinecarboxylic acid]: the MIC in the test with Bacillus cereus stood at 0.25 µg/mL (≈ 0.527 µM); in test [2], 0.5 µg/mL (≈ 1.05 µM); in test [3] it was 2 µg/mL (≈ 4.22 µM); in test [4], 0.25 µg/mL (≈ 0.527 µM); in test [5], 0.25 µg/mL (≈ 0.527 µM); in test [6], 0.25 µg/mL (≈ 0.527 µM). Moreover, the MIC in the test on Streptococcus faecium came out at 1 µg/mL (≈ 2.11 µM).

Consider `O=C(O)c1cn(C2CC2)c2cc(N(CC3CCCO3)c3cccc(Cl)n3)c(F)cc2c1=O` (stereo not shown) [JA 143, 7-[(6-chloro-2-pyridinyl)(tetrahydro-2-furanylmethyl)amino]-1-cyclopropyl-6-fluoro-4-oxo-1,4-dihydro-3-quinolinecarboxylic acid], for which the MIC was 0.12 µg/mL (≈ 0.262 µM) in the test with Bacillus cereus; 0.12 µg/mL (≈ 0.262 µM) in test [2]; over 2 µg/mL in test [3]; 0.25 µg/mL (≈ 0.546 µM) in test [4]; 0.12 µg/mL (≈ 0.262 µM) in test [5]; 0.12 µg/mL (≈ 0.262 µM) in test [6]. The MIC in the test with Streptococcus faecium was 1 µg/mL (≈ 2.18 µM).

With `O=C(O)c1ccc(CNc2cc3c(cc2F)c(=O)c(C(=O)O)cn3C2CC2)cc1` [JA 70, 7-[(4-carboxybenzyl)amino]-1-cyclopropyl-6-fluoro-4-oxo-1,4-dihydro-3-quinolinecarboxylic acid], the MIC was found to be 0.12 µg/mL (≈ 0.303 µM) against Bacillus cereus; 0.25 µg/mL (≈ 0.631 µM) in test [2]; 1 µg/mL (≈ 2.52 µM) in test [3]; 0.12 µg/mL (≈ 0.303 µM) in test [4]; 0.25 µg/mL (≈ 0.631 µM) in test [5]; 0.12 µg/mL (≈ 0.303 µM) in test [6]. Also, in the test on Streptococcus faecium, the MIC was 2 µg/mL (≈ 5.05 µM).

As to `O=C(O)c1cn(C2CC2)c2cc(N3CCN(c4cnccn4)CC3)c(F)cc2c1=O` [JA 46, 1-cyclopropyl-6-fluoro-4-oxo-7-[4-(2-pyrazinyl)-1-piperazinyl]-1,4-dihydro-3-quinolinecarboxylic acid], the MIC is 0.06 µg/mL (≈ 0.147 µM) against Bacillus cereus; 0.12 µg/mL (≈ 0.293 µM) in test [2]; 1 µg/mL (≈ 2.44 µM) in test [3]; 0.12 µg/mL (≈ 0.293 µM) in test [4]; 0.12 µg/mL (≈ 0.293 µM) in test [5]; 0.12 µg/mL (≈ 0.293 µM) in test [6]. Further, in the test on Streptococcus faecium, the MIC was determined as 0.5 µg/mL (≈ 1.22 µM).

For `O=C(O)c1cn(C2CC2)c2cc(N3CCN(c4ccc(Br)cn4)CC3)c(F)cc2c1=O` [JA 40, 7-[4-(5-bromo-2-pyridinyl)-1-piperazinyl]-1-cyclopropyl-6-fluoro-4-oxo-1,4-dihydro-3-quinolinecarboxylic acid], the MIC in the test on Bacillus cereus came to 0.06 µg/mL (≈ 0.123 µM); in test [2], 0.12 µg/mL (≈ 0.246 µM); in test [3] it was 2 µg/mL (≈ 4.1 µM); in test [4], 0.25 µg/mL (≈ 0.513 µM); in test [5], 0.12 µg/mL (≈ 0.246 µM); in test [6], 0.06 µg/mL (≈ 0.123 µM). The MIC with Streptococcus faecium was 1 µg/mL (≈ 2.05 µM).

For `O=C(O)c1cn(C2CC2)c2cc(N(CCc3ccncc3)CC3CCCO3)c(F)cc2c1=O` (stereo not shown) [JA 145, 1-cyclopropyl-6-fluoro-4-oxo-7-[[2-(4-pyridinyl)ethyl](tetrahydro-2-furanylmethyl)amino]-1,4-dihydro-3-quinolinecarboxylic acid], the MIC against Bacillus cereus is 0.12 µg/mL (≈ 0.266 µM); in test [2], 0.12 µg/mL (≈ 0.266 µM); in test [3], 2 µg/mL (≈ 4.43 µM); in test [4] it was 0.12 µg/mL (≈ 0.266 µM); in test [5], 0.12 µg/mL (≈ 0.266 µM); in test [6], 0.12 µg/mL (≈ 0.266 µM). The MIC with Streptococcus faecium worked out at 1 µg/mL (≈ 2.21 µM).

For the compound `O=C(O)c1cn(C2CC2)c2cc(N(CC3CCCO3)S(=O)(=O)C(F)(F)F)c(F)cc2c1=O` (stereo not shown) [JA 138, 1-cyclopropyl-6-fluoro-4-oxo-7-{(tetrahydro-2-furanylmethyl)[(trifluoromethyl)sulfonyl]amino}-1,4-dihydro-3-quinolinecarboxylic acid], the MIC in the test on Bacillus cereus came to 0.06 µg/mL (≈ 0.125 µM); in test [2] it was 0.12 µg/mL (≈ 0.251 µM); in test [3], 2 µg/mL (≈ 4.18 µM); in test [4] it was 0.25 µg/mL (≈ 0.523 µM); in test [5] it was 0.12 µg/mL (≈ 0.251 µM); in test [6], 0.12 µg/mL (≈ 0.251 µM). In addition, in the test on Streptococcus faecium, the MIC amounted to 1 µg/mL (≈ 2.09 µM).

Consider `O=C(O)c1cn(C2CC2)c2cc(N(CC3CCCO3)S(=O)(=O)CCc3ccccc3)c(F)cc2c1=O` (stereo not shown) [JA 137, 1-cyclopropyl-6-fluoro-4-oxo-7-[(phenethylsulfonyl)(tetrahydro-2-furanylmethyl)amino]-1,4-dihydro-3-quinolinecarboxylic acid], for which the MIC against Bacillus cereus was 0.25 µg/mL (≈ 0.486 µM); in test [2], 0.12 µg/mL (≈ 0.233 µM); in test [3], 2 µg/mL (≈ 3.89 µM); in test [4] it was 0.5 µg/mL (≈ 0.972 µM); in test [5], 0.25 µg/mL (≈ 0.486 µM); in test [6], 0.12 µg/mL (≈ 0.233 µM). The MIC with Streptococcus faecium was found to be 1 µg/mL (≈ 1.94 µM).

In the case of `COCC(C)N(C(=O)CC(C)=O)c1cc2c(cc1F)c(=O)c(C(=O)O)cn2C1CC1` (stereo not shown) [JA 148, 7-[acetoacetyl(2-methoxy-1-methylethyl)amino]-1-cyclopropyl-6-fluoro-4-oxo-1,4-dihydro-3-quinolinecarboxylic acid], the MIC worked out at 0.06 µg/mL (≈ 0.143 µM) in the test with Bacillus cereus; 0.12 µg/mL (≈ 0.287 µM) in test [2]; 2 µg/mL (≈ 4.78 µM) in test [3]; 0.12 µg/mL (≈ 0.287 µM) in test [4]; 0.12 µg/mL (≈ 0.287 µM) in test [5]; 0.12 µg/mL (≈ 0.287 µM) in test [6]. Moreover, the MIC in the test on Streptococcus faecium worked out at 1 µg/mL (≈ 2.39 µM).
